Results as given in PubChem BioAssay AID1963982 (Molecular Pharmacology Branch, DTP, NCI, 2024).

Tested on: 313798-341-R-J2-PDC spheroids, viability
Assay: Anticancer human tumor 313798-341-R-J2-PDC patient-derived cervical squamous cell carcinoma cell line growth inhibition [PI3K]
Settings: spheroids with HUVEC and MSC; for IC50: curve of first compound; for viability, T/C: stronger effect = lower value
Summary of the method: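 Tumor cells grown as multi-cell spheroids with HUVEC endothelial cells and MSC fibroblast-like stroma were treated with targeted agents combined with inavolisib, alpelisib, duvelisib or copanlisib. Doses fell in half-log steps from near clinical Cmax, else from 10 microM. Viability was measured.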

[1] = second compound 0.0316 µM, first compound 0.0316 µM
[2] = second compound 0.0316 µM, first compound 0.1 µM
[3] = second compound 0.0316 µM, first compound 0.316 µM
[4] = second compound 0.0316 µM, first compound 1 µM
[5] = second compound 0.0316 µM, first compound 3.16 µM
[6] = second compound 0.0316 µM, first compound 10 µM
[7] = second compound 0.1 µM, first compound 0.0316 µM
[8] = second compound 0.1 µM, first compound 0.1 µM
[9] = second compound 0.1 µM, first compound 0.316 µM
[10] = second compound 0.1 µM, first compound 1 µM
[11] = second compound 0.1 µM, first compound 3.16 µM
[12] = second compound 0.1 µM, first compound 10 µM
[13] = second compound 0.316 µM, first compound 0.0316 µM
[14] = second compound 0.316 µM, first compound 0.1 µM
[15] = second compound 0.316 µM, first compound 0.316 µM
[16] = second compound 0.316 µM, first compound 1 µM
[17] = second compound 0.316 µM, first compound 3.16 µM
[18] = second compound 0.316 µM, first compound 10 µM
[19] = second compound 1 µM, first compound 0.0316 µM
[20] = second compound 1 µM, first compound 0.1 µM
[21] = second compound 1 µM, first compound 0.316 µM
[22] = second compound 1 µM, first compound 1 µM
[23] = second compound 1 µM, first compound 3.16 µM
[24] = second compound 1 µM, first compound 10 µM
[25] = second compound 3.16 µM, first compound 0.0316 µM
[26] = second compound 3.16 µM, first compound 0.1 µM
[27] = second compound 3.16 µM, first compound 0.316 µM
[28] = second compound 3.16 µM, first compound 1 µM
[29] = second compound 3.16 µM, first compound 3.16 µM
[30] = second compound 3.16 µM, first compound 10 µM
[31] = second compound 10 µM, first compound 0.0316 µM
[32] = second compound 10 µM, first compound 0.1 µM
[33] = second compound 10 µM, first compound 0.316 µM
[34] = second compound 10 µM, first compound 1 µM
[35] = second compound 10 µM, first compound 3.16 µM
[36] = second compound 10 µM, first compound 10 µM
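Further: spheroids exposed to compounds for seven days.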
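Wherever viability, T/C is given: 100% = DMSO vehicle control viability.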

Which results are given for `C[C@@H](NC(=O)c1ncnc(N)c1Cl)c1ncc(C(=O)Nc2cc(C(F)(F)F)c(Cl)cn2)s1` + Cc1nc(NC(=O)N2CCCC2C(N)=O)sc1-c1ccnc(C(C)(C)C(F)(F)F)c1?
IC50 (second compound 0.0316 µM): > 10000 nM; IC50 (second compound 0.1 µM): > 10000 nM; IC50 (second compound 0.316 µM): > 10000 nM; IC50 (second compound 1 µM): > 10000 nM; IC50 (second compound 3.16 µM): > 10000 nM; IC50 (second compound 10 µM): < 31.6 nM; viability, T/C [1]: 106%; viability, T/C [2]: 93.3%; viability, T/C [3]: 103%; viability, T/C [4]: 101%; viability, T/C [5]: 108%; viability, T/C [6]: 107%; viability, T/C [7]: 104%; viability, T/C [8]: 112%; viability, T/C [9]: 92.8%; viability, T/C [10]: 111%; viability, T/C [11]: 115%; viability, T/C [12]: 113%; viability, T/C [13]: 111%; viability, T/C [14]: 121%; viability, T/C [15]: 104%; viability, T/C [16]: 105%; viability, T/C [17]: 110%; viability, T/C [18]: 109%; viability, T/C [19]: 104%; viability, T/C [20]: 92%; viability, T/C [21]: 89.7%; viability, T/C [22]: 101%; viability, T/C [23]: 98.6%; viability, T/C [24]: 88%; viability, T/C [25]: 63.7%; viability, T/C [26]: 60%; viability, T/C [27]: 69.2%; viability, T/C [28]: 71.1%; viability, T/C [29]: 64.9%; viability, T/C [30]: 58.4%; viability, T/C [31]: 31.8%; viability, T/C [32]: 35.1%; viability, T/C [33]: 38.2%; viability, T/C [34]: 33.4%; viability, T/C [35]: 39.6%; viability, T/C [36]: 39.5%

With `CC1(C)CCC(Nc2ncc(C(F)(F)F)c(-c3c[nH]c4c(P(C)(C)=O)c(C#N)ccc34)n2)CN1` (stereo unspecified) + CC(Nc1ncnc2nc[nH]c12)c1cc2cccc(Cl)c2c(=O)n1-c1ccccc1 as the molecule, how does the IC50 (second compound 0.0316 µM) read?
The IC50 was < 31.6 nM.

What about the IC50 (second compound 0.1 µM) of the same molecule?
The IC50 was < 31.6 nM.

What about the IC50 (second compound 0.316 µM) of the same molecule?
Its IC50 is < 31.6 nM.

And the IC50 (second compound 1 µM)?
The IC50 was < 31.6 nM.

And the IC50 (second compound 3.16 µM)?
The IC50 was < 31.6 nM.

And the IC50 (second compound 10 µM)?
Its IC50 is < 31.6 nM.

And the viability, T/C [1]?
Its viability, T/C is 54.2%.

And the viability, T/C [2]?
Its viability, T/C is 46.3%.

What about the viability, T/C [3] of the same molecule?
Its viability, T/C is 46.9%.

What about the viability, T/C [4] of the same molecule?
Its viability, T/C is 48%.

What about the viability, T/C [5] of the same molecule?
The viability, T/C was 50.5%.

And the viability, T/C [6]?
The viability, T/C was 60.4%.

What about the viability, T/C [7] of the same molecule?
Its viability, T/C is 47.3%.

What about the viability, T/C [8] of the same molecule?
The viability, T/C was 49.3%.

What about the viability, T/C [9] of the same molecule?
Its viability, T/C is 47.3%.

And the viability, T/C [10]?
The viability, T/C was 46.8%.

And the viability, T/C [11]?
The viability, T/C was 50.3%.

And the viability, T/C [12]?
The viability, T/C was 66.6%.

And the viability, T/C [13]?
Its viability, T/C is 49.3%.

And the viability, T/C [14]?
The viability, T/C was 44.3%.

And the viability, T/C [15]?
Its viability, T/C is 44.3%.

And the viability, T/C [16]?
The viability, T/C was 43.8%.

And the viability, T/C [17]?
Its viability, T/C is 51.8%.

And the viability, T/C [18]?
The viability, T/C was 62.3%.

What about the viability, T/C [19] of the same molecule?
The viability, T/C was 47.4%.

What about the viability, T/C [20] of the same molecule?
The viability, T/C was 46.8%.

What about the viability, T/C [21] of the same molecule?
The viability, T/C was 45.5%.

What about the viability, T/C [22] of the same molecule?
Its viability, T/C is 49.2%.

What about the viability, T/C [23] of the same molecule?
Its viability, T/C is 54%.

And the viability, T/C [24]?
Its viability, T/C is 58.2%.

What about the viability, T/C [25] of the same molecule?
Its viability, T/C is 49.2%.

And the viability, T/C [26]?
Its viability, T/C is 45.4%.

And the viability, T/C [27]?
Its viability, T/C is 42.7%.

And the viability, T/C [28]?
The viability, T/C was 45.8%.

What about the viability, T/C [29] of the same molecule?
Its viability, T/C is 43.7%.

What about the viability, T/C [30] of the same molecule?
Its viability, T/C is 50.3%.

What about the viability, T/C [31] of the same molecule?
The viability, T/C was 42.1%.

And the viability, T/C [32]?
The viability, T/C was 36.2%.

And the viability, T/C [33]?
The viability, T/C was 35%.

And the viability, T/C [34]?
Its viability, T/C is 34.5%.

And the viability, T/C [35]?
Its viability, T/C is 38.1%.

And the viability, T/C [36]?
Its viability, T/C is 38.1%.

For `CC(=O)c1c(C)c2cnc(Nc3ccc(N4CCNCC4)cn3)nc2n(C2CCCC2)c1=O` + CC(Nc1ncnc2nc[nH]c12)c1cc2cccc(Cl)c2c(=O)n1-c1ccccc1, which IC50 (second compound 0.0316 µM) is on record?
The IC50 was > 100 nM.

And the IC50 (second compound 0.1 µM)?
The IC50 was > 100 nM.

What about the IC50 (second compound 0.316 µM) of the same molecule?
The IC50 was > 100 nM.

And the IC50 (second compound 1 µM)?
Its IC50 is > 100 nM.

What about the IC50 (second compound 3.16 µM) of the same molecule?
The IC50 was > 100 nM.

And the IC50 (second compound 10 µM)?
Its IC50 is > 100 nM.

And the viability, T/C (second compound 0.0316 µM, first compound 0.000316 µM)?
Its viability, T/C is 100%.

And the viability, T/C (second compound 0.0316 µM, first compound 0.001 µM)?
The viability, T/C was 112%.

And the viability, T/C (second compound 0.0316 µM, first compound 0.00316 µM)?
The viability, T/C was 98.8%.

And the viability, T/C (second compound 0.0316 µM, first compound 0.01 µM)?
Its viability, T/C is 102%.

And the viability, T/C [1]?
The viability, T/C was 101%.

And the viability, T/C [2]?
Its viability, T/C is 106%.

What about the viability, T/C (second compound 0.1 µM, first compound 0.000316 µM) of the same molecule?
Its viability, T/C is 104%.

What about the viability, T/C (second compound 0.1 µM, first compound 0.001 µM) of the same molecule?
The viability, T/C was 104%.

And the viability, T/C (second compound 0.1 µM, first compound 0.00316 µM)?
Its viability, T/C is 108%.

And the viability, T/C (second compound 0.1 µM, first compound 0.01 µM)?
The viability, T/C was 109%.

And the viability, T/C [7]?
Its viability, T/C is 103%.

What about the viability, T/C [8] of the same molecule?
The viability, T/C was 97.4%.

What about the viability, T/C (second compound 0.316 µM, first compound 0.000316 µM) of the same molecule?
Its viability, T/C is 99.6%.

What about the viability, T/C (second compound 0.316 µM, first compound 0.001 µM) of the same molecule?
Its viability, T/C is 105%.

And the viability, T/C (second compound 0.316 µM, first compound 0.00316 µM)?
Its viability, T/C is 91.1%.

What about the viability, T/C (second compound 0.316 µM, first compound 0.01 µM) of the same molecule?
The viability, T/C was 110%.

And the viability, T/C [13]?
The viability, T/C was 95.3%.

What about the viability, T/C [14] of the same molecule?
The viability, T/C was 104%.

What about the viability, T/C (second compound 1 µM, first compound 0.000316 µM) of the same molecule?
The viability, T/C was 108%.

And the viability, T/C (second compound 1 µM, first compound 0.001 µM)?
The viability, T/C was 107%.

And the viability, T/C (second compound 1 µM, first compound 0.00316 µM)?
The viability, T/C was 94.1%.

What about the viability, T/C (second compound 1 µM, first compound 0.01 µM) of the same molecule?
Its viability, T/C is 106%.

And the viability, T/C [19]?
Its viability, T/C is 99.2%.

And the viability, T/C [20]?
The viability, T/C was 106%.

What about the viability, T/C (second compound 3.16 µM, first compound 0.000316 µM) of the same molecule?
The viability, T/C was 100%.

What about the viability, T/C (second compound 3.16 µM, first compound 0.001 µM) of the same molecule?
The viability, T/C was 108%.

What about the viability, T/C (second compound 3.16 µM, first compound 0.00316 µM) of the same molecule?
Its viability, T/C is 104%.

And the viability, T/C (second compound 3.16 µM, first compound 0.01 µM)?
The viability, T/C was 97%.

What about the viability, T/C [25] of the same molecule?
Its viability, T/C is 100%.

And the viability, T/C [26]?
The viability, T/C was 103%.

And the viability, T/C (second compound 10 µM, first compound 0.000316 µM)?
The viability, T/C was 93%.

What about the viability, T/C (second compound 10 µM, first compound 0.001 µM) of the same molecule?
Its viability, T/C is 94.8%.

And the viability, T/C (second compound 10 µM, first compound 0.00316 µM)?
The viability, T/C was 92.6%.

What about the viability, T/C (second compound 10 µM, first compound 0.01 µM) of the same molecule?
Its viability, T/C is 98.2%.

And the viability, T/C [31]?
Its viability, T/C is 92.3%.

And the viability, T/C [32]?
The viability, T/C was 87.5%.
